Assays:
MAGE-A3 TCR (TCR-1) [1] = assay: Kinetic binding of TCR to peptides (Octet BLI); conditions: Table 3; Ala mutants of Peptide-5 and controls
Protocol: BLI based kinetic binding of TCR to peptides was measured using a ForteBio Octet RED96 instrument. Biotinylated peptides were first directly captured on streptavidin biosensors. Sensors were quenched using excess biocytin and then baselined in buffer. A dilution series of TCR was made and associated onto the peptide loaded biosensor. Association and dissociation signals were monitored in real-time. Signals were fit to a 1:1 binding model in order to derive binding constants, kon and koff, as well as KD.

[2] = test system: TCR-1 binding to MAGE-A3 pMHC; assay: Inhibition of kinetic binding of TCR to its cognate pMHC (BLI); conditions: Table 3
Protocol: First, biotinylated pMHC was captured on streptavidin biosensors. Sensors were quenched using excess biocytin and then baselined in buffer. Inhibitory peptide was titrated in a two fold dilution series starting from 100 uM and pre-incubated with a constant concentration of 50 nM TCR. Peptide and TCR mixtures were then associated onto the pMHC loaded biosensor. Zero concentration of inhibitory peptide or zero concentration of TCR were used as controls. Association and dissociation signals were monitored in real-time. The maximal association signal was normalized from 100% (0 uM inhibitory peptide control) to 0% (0 nM TCR control) and plotted versus log-scale inhibitory peptide concentration.

MAGE-A3 TCR (TCR-1) [3] = assay: Equilibrium binding of TCR to peptides (ELISA)
Protocol: Peptide binding was also examined in an ELISA format. Biotinylated peptides were captured on neutravidin coated plates. TCR was then prepared in a half-log dilution series starting from 10 uM and titrated onto the peptide captured plates. […] The concentration of TCR required to observe half maximal binding signal (EC50) was then calculated using Graphpad Prism.

Compound | Octet BLI Binds TCR (MAGE-A3 TCR (TCR-1) [1]) | Octet BLI Competes at 100 uM [2] | EC50 (MAGE-A3 TCR (TCR-1) [3]; Table 3) [µM] | binding to TCR-1, Ala scan and control peptides (MAGE-A3 TCR (TCR-1) [3]; relative to Peptide-5) | EC50 (MAGE-A3 TCR (TCR-1) [3]; Table 2, TCR-1 titrated on captured peptide) [µM]
CC(C)[C@@H]1NC(=O)[C@H](CC(=O)O)NC(=O)[C@H](CCCCN)NC(=O)[C@@H](NC(=O)[C@H](CO)NC(=O)[C@H](C)NC(=O)CNC(=O)CN)CSSC[C@@H](C(=O)N[C@@H](Cc2c[nH]c3ccccc23)C(=O)N[C@H](C(=O)NCC(=O)NCC(=O)NCC(=O)NCC(=O)N[C@@H](CO)C(=O)NCCOCCOCCOCCOCCC(=O)N[C@@H](CCCCNC(=O)CCCC[C@@H]2SC[C@@H]3NC(=O)N[C@@H]32)C(N)=O)[C@@H](C)O)NC(=O)[C@H](Cc2ccccc2)NC(=O)[C@H](C)NC(=O)[C@H](CCC(=O)O)NC(=O)[C@H](CC(=O)O)NC(=O)[C@H](Cc2ccc(O)cc2)NC1=O [Peptide-21] | Yes | Yes | – | – | –
CC(C)[C@H](NC(=O)CNC(=O)CN)C(=O)N[C@@H](C)C(=O)N[C@H]1CSSC[C@@H](C(=O)N[C@@H](Cc2c[nH]c3ccccc23)C(=O)N[C@H](C(=O)NCC(=O)NCC(=O)NCC(=O)NCC(=O)N[C@@H](CO)C(=O)NCCOCCOCCOCCOCCC(=O)N[C@@H](CCCCNC(=O)CCCC[C@@H]2SC[C@@H]3NC(=O)N[C@@H]32)C(N)=O)[C@@H](C)O)NC(=O)[C@H](Cc2ccccc2)NC(=O)[C@H](C)NC(=O)[C@H](CCC(=O)O)NC(=O)[C@H](CC(=O)O)NC(=O)[C@H](Cc2ccc(O)cc2)NC(=O)[C@H](C(C)C)NC(=O)[C@H](CC(=O)O)NC(=O)[C@H](CCCCN)NC1=O [Peptide-22] | No | – | – | – | –
CC(C)[C@H](NC(=O)CNC(=O)CN)C(=O)N[C@@H](CO)C(=O)N[C@@H](C)C(=O)N[C@@H](CCCCN)C(=O)N[C@@H](CC(=O)O)C(=O)N[C@H](C(=O)N[C@@H](Cc1ccc(O)cc1)C(=O)N[C@@H](CC(=O)O)C(=O)N[C@@H](CCC(=O)O)C(=O)N[C@@H](C)C(=O)N[C@@H](Cc1ccccc1)C(=O)N[C@@H](CS)C(=O)N[C@@H](Cc1c[nH]c2ccccc12)C(=O)N[C@H](C(=O)NCC(=O)NCC(=O)NCC(=O)NCC(=O)N[C@@H](CO)C(=O)NCCOCCOCCOCCOCCC(=O)N[C@@H](CCCCNC(=O)CCCC[C@@H]1SC[C@@H]2NC(=O)N[C@@H]21)C(N)=O)[C@@H](C)O)C(C)C [Peptide-23] | Yes | Yes | > 10 | – | –
CC(C)[C@H](NC(=O)CNC(=O)CN)C(=O)N[C@@H](CO)C(=O)N[C@H]1CSSC[C@@H](C(=O)N[C@@H](Cc2c[nH]c3ccccc23)C(=O)N[C@H](C(=O)NCC(=O)NCC(=O)NCC(=O)NCC(=O)N[C@@H](CO)C(=O)NCCOCCOCCOCCOCCC(=O)N[C@@H](CCCCNC(=O)CCCC[C@@H]2SC[C@@H]3NC(=O)N[C@@H]32)C(N)=O)[C@@H](C)O)NC(=O)[C@H](Cc2ccccc2)NC(=O)[C@H](C)NC(=O)[C@H](CCC(=O)O)NC(=O)[C@H](CC(=O)O)NC(=O)[C@H](Cc2ccc(O)cc2)NC(=O)[C@H](C(C)C)NC(=O)[C@H](CC(=O)O)NC(=O)[C@H](C)NC1=O [Peptide-24] | Yes | Yes | – | – | –
CC(C)[C@H](NC(=O)CNC(=O)CN)C(=O)N[C@@H](CO)C(=O)N[C@H]1CSSC[C@@H](C(=O)N[C@@H](Cc2c[nH]c3ccccc23)C(=O)N[C@H](C(=O)NCC(=O)NCC(=O)NCC(=O)NCC(=O)N[C@@H](CO)C(=O)NCCOCCOCCOCCOCCC(=O)N[C@@H](CCCCNC(=O)CCCC[C@@H]2SC[C@@H]3NC(=O)N[C@@H]32)C(N)=O)[C@@H](C)O)NC(=O)[C@H](Cc2ccccc2)NC(=O)[C@H](C)NC(=O)[C@H](CCC(=O)O)NC(=O)[C@H](CC(=O)O)NC(=O)[C@H](Cc2ccc(O)cc2)NC(=O)[C@H](C(C)C)NC(=O)[C@H](C)NC(=O)[C@H](CCCCN)NC1=O [Peptide-25] | Weak | – | – | – | –
CC(C)[C@H](NC(=O)CNC(=O)CN)C(=O)N[C@@H](CO)C(=O)N[C@H]1CSSC[C@@H](C(=O)N[C@@H](Cc2c[nH]c3ccccc23)C(=O)N[C@H](C(=O)NCC(=O)NCC(=O)NCC(=O)NCC(=O)N[C@@H](CO)C(=O)NCCOCCOCCOCCOCCC(=O)N[C@@H](CCCCNC(=O)CCCC[C@@H]2SC[C@@H]3NC(=O)N[C@@H]32)C(N)=O)[C@@H](C)O)NC(=O)[C@H](Cc2ccccc2)NC(=O)[C@H](C)NC(=O)[C@H](CCC(=O)O)NC(=O)[C@H](CC(=O)O)NC(=O)[C@H](Cc2ccc(O)cc2)NC(=O)[C@H](C)NC(=O)[C@H](CC(=O)O)NC(=O)[C@H](CCCCN)NC1=O [Peptide-26] | No | – | – | – | –
CC(C)[C@H](NC(=O)CNC(=O)CN)C(=O)N[C@@H](CO)C(=O)N[C@H]1CSSC[C@@H](C(=O)N[C@@H](Cc2c[nH]c3ccccc23)C(=O)N[C@H](C(=O)NCC(=O)NCC(=O)NCC(=O)NCC(=O)N[C@@H](CO)C(=O)NCCOCCOCCOCCOCCC(=O)N[C@@H](CCCCNC(=O)CCCC[C@@H]2SC[C@@H]3NC(=O)N[C@@H]32)C(N)=O)[C@@H](C)O)NC(=O)[C@H](Cc2ccccc2)NC(=O)[C@H](C)NC(=O)[C@H](CCC(=O)O)NC(=O)[C@H](CC(=O)O)NC(=O)[C@H](C)NC(=O)[C@H](C(C)C)NC(=O)[C@H](CC(=O)O)NC(=O)[C@H](CCCCN)NC1=O [Peptide-27] | No | – | > 10 | – | –
GGNQCWEVYDQEFCSL [Peptide-9] | – | – | – | – | 0.05

The remaining lines, values ahead:

Octet BLI Binds TCR (MAGE-A3 TCR (TCR-1) [1]) | Octet BLI Competes at 100 uM [2] | EC50 (MAGE-A3 TCR (TCR-1) [3]; Table 3) [µM] | binding to TCR-1, Ala scan and control peptides (MAGE-A3 TCR (TCR-1) [3]; relative to Peptide-5) | EC50 (MAGE-A3 TCR (TCR-1) [3]; Table 2, TCR-1 titrated on captured peptide) [µM] | Compound
Yes | Yes | – | – | – | CC(C)[C@H](NC(=O)CNC(=O)CN)C(=O)N[C@@H](CO)C(=O)N[C@H]1CSSC[C@@H](C(=O)N[C@@H](Cc2c[nH]c3ccccc23)C(=O)N[C@H](C(=O)NCC(=O)NCC(=O)NCC(=O)NCC(=O)N[C@@H](CO)C(=O)NCCOCCOCCOCCOCCC(=O)N[C@@H](CCCCNC(=O)CCCC[C@@H]2SC[C@@H]3NC(=O)N[C@@H]32)C(N)=O)[C@@H](C)O)NC(=O)[C@H](Cc2ccccc2)NC(=O)[C@H](C)NC(=O)[C@H](CCC(=O)O)NC(=O)[C@H](C)NC(=O)[C@H](Cc2ccc(O)cc2)NC(=O)[C@H](C(C)C)NC(=O)[C@H](CC(=O)O)NC(=O)[C@H](CCCCN)NC1=O [Peptide-28]
No | – | – | – | – | CC(C)[C@H](NC(=O)CNC(=O)CN)C(=O)N[C@@H](CO)C(=O)N[C@H]1CSSC[C@@H](C(=O)N[C@@H](Cc2c[nH]c3ccccc23)C(=O)N[C@H](C(=O)NCC(=O)NCC(=O)NCC(=O)NCC(=O)N[C@@H](CO)C(=O)NCCOCCOCCOCCOCCC(=O)N[C@@H](CCCCNC(=O)CCCC[C@@H]2SC[C@@H]3NC(=O)N[C@@H]32)C(N)=O)[C@@H](C)O)NC(=O)[C@H](Cc2ccccc2)NC(=O)[C@H](C)NC(=O)[C@H](C)NC(=O)[C@H](CC(=O)O)NC(=O)[C@H](Cc2ccc(O)cc2)NC(=O)[C@H](C(C)C)NC(=O)[C@H](CC(=O)O)NC(=O)[C@H](CCCCN)NC1=O [Peptide-29]
No | – | > 10 | – | – | CC(C)[C@H](NC(=O)CNC(=O)CN)C(=O)N[C@@H](CO)C(=O)N[C@H]1CSSC[C@@H](C(=O)N[C@@H](Cc2c[nH]c3ccccc23)C(=O)N[C@H](C(=O)NCC(=O)NCC(=O)NCC(=O)NCC(=O)N[C@@H](CO)C(=O)NCCOCCOCCOCCOCCC(=O)N[C@@H](CCCCNC(=O)CCCC[C@@H]2SC[C@@H]3NC(=O)N[C@@H]32)C(N)=O)[C@@H](C)O)NC(=O)[C@H](C)NC(=O)[C@H](C)NC(=O)[C@H](CCC(=O)O)NC(=O)[C@H](CC(=O)O)NC(=O)[C@H](Cc2ccc(O)cc2)NC(=O)[C@H](C(C)C)NC(=O)[C@H](CC(=O)O)NC(=O)[C@H](CCCCN)NC1=O [Peptide-30]
Weak | – | > 10 | – | – | CC(C)[C@H](NC(=O)CNC(=O)CN)C(=O)N[C@@H](CO)C(=O)N[C@@H](CS)C(=O)N[C@@H](CCCCN)C(=O)N[C@@H](CC(=O)O)C(=O)N[C@H](C(=O)N[C@@H](Cc1ccc(O)cc1)C(=O)N[C@@H](CC(=O)O)C(=O)N[C@@H](CCC(=O)O)C(=O)N[C@@H](C)C(=O)N[C@@H](Cc1ccccc1)C(=O)N[C@@H](C)C(=O)N[C@@H](Cc1c[nH]c2ccccc12)C(=O)N[C@H](C(=O)NCC(=O)NCC(=O)NCC(=O)NCC(=O)N[C@@H](CO)C(=O)NCCOCCOCCOCCOCCC(=O)N[C@@H](CCCCNC(=O)CCCC[C@@H]1SC[C@@H]2NC(=O)N[C@@H]21)C(N)=O)[C@@H](C)O)C(C)C [Peptide-31]
Yes | Yes | – | – | – | CC(C)[C@H](NC(=O)CNC(=O)CN)C(=O)N[C@@H](CO)C(=O)N[C@H]1CSSC[C@@H](C(=O)N[C@@H](C)C(=O)N[C@H](C(=O)NCC(=O)NCC(=O)NCC(=O)NCC(=O)N[C@@H](CO)C(=O)NCCOCCOCCOCCOCCC(=O)N[C@@H](CCCCNC(=O)CCCC[C@@H]2SC[C@@H]3NC(=O)N[C@@H]32)C(N)=O)[C@@H](C)O)NC(=O)[C@H](Cc2ccccc2)NC(=O)[C@H](C)NC(=O)[C@H](CCC(=O)O)NC(=O)[C@H](CC(=O)O)NC(=O)[C@H](Cc2ccc(O)cc2)NC(=O)[C@H](C(C)C)NC(=O)[C@H](CC(=O)O)NC(=O)[C@H](CCCCN)NC1=O [Peptide-32]
Yes | Yes | – | – | – | CC(C)[C@H](NC(=O)CNC(=O)CN)C(=O)N[C@@H](CO)C(=O)N[C@H]1CSSC[C@@H](C(=O)N[C@@H](Cc2c[nH]c3ccccc23)C(=O)N[C@@H](C)C(=O)NCC(=O)NCC(=O)NCC(=O)NCC(=O)N[C@@H](CO)C(=O)NCCOCCOCCOCCOCCC(=O)N[C@@H](CCCCNC(=O)CCCC[C@@H]2SC[C@@H]3NC(=O)N[C@@H]32)C(N)=O)NC(=O)[C@H](Cc2ccccc2)NC(=O)[C@H](C)NC(=O)[C@H](CCC(=O)O)NC(=O)[C@H](CC(=O)O)NC(=O)[C@H](Cc2ccc(O)cc2)NC(=O)[C@H](C(C)C)NC(=O)[C@H](CC(=O)O)NC(=O)[C@H](CCCCN)NC1=O [Peptide-33]
No | – | > 10 | – | – | ESDPIVAQY [Peptide-35, Titin peptide, linear control absent MHC presentation, reference compound]
No | – | > 10 | lack of binding | – | EVDPIGHLY [Peptide-34, MAGE-A3 antigen peptide, linear control absent MHC presentation, reference compound]
